Assay results from patent publication US20090170897A1, “Method of Treating Neuropathic Pain” (Pfizer, Inc., priority 2004, published 2009).

How the values were obtained:
CCI-induced pain in rats = conditions: literature; cited from earlier work
[1] = test system: Streptozocin (STZ)-induced diabetes neuropathy in the rat; experiment: STZ-induced dynamic allodynia (cotton bud, PWL); format: in vivo; conditions: compound 25 mg/kg PO; gabapentin 100 mg/kg PO (positive control)
Method: (§1) Male Sprague Dawley rats weighing 150-400 g obtained from Charles River (Manston, Kent, UK.) were housed in groups of 3. All animals were kept under a 12 h light/dark cycle (lights on at 07 h 00 min) with food and water ad libitum. All experiments were carried out by an observer blind to the treatments and in accordance with the Home Office Animals (Scientific Procedures) Act 1986.
(§2) Diabetes was induced by a single intraperitoneal injection of streptozotocin (50 mg/kg) freshly dissolved in 0.9% sterile saline. Streptozotocin injection induces a reproducible mechanical allodynia within 3 weeks, lasting for at least 7 weeks (Chen and Pan, (Chen S R and Pan H L. Hypersensitivity of Spinothalamic Tract Neurons Associated With Diabetic Neuropathic Pain in Rats. J Neurophysiol 87: 2726-2733, 2002).
Dynamic allodynia was assessed by lightly stroking the plantar surface of the hind paw with a cotton bud. To avoid recording general motor activity, care was taken to perform this procedure in fully habituated rats that were not active. At least two measurements were taken at each time point, the mean of which represented the paw withdrawal latency (PWL). […] A pain withdrawal response was often accompanied with repeated flinching or licking of the paw. Dynamic allodynia was considered to be present if animals responded to the cotton stimulus within 8 sec of commencing stroking (Field et al, 1999).
(§3) All the experiments were conducted blind. Static allodynia was expressed as median [LQ; UQ] and analysed by Mann Whitney U test. Dynamic allodynia and thermal hyperalgesia were expressed as arithmetic mean±SEM and analysed by ANOVA.

[2] = test system: Chronic Constriction Injury (CCI) rat model of neuropathic pain; conditions: literature; cited from earlier work
[3] = test system: Streptozocin (STZ)-induced diabetes neuropathy in the rat; conditions: literature; cited from earlier work
[4] = test system: Chronic Constriction Injury (CCI) rat model of neuropathic pain; conditions: literature; cited from earlier work; remark: listed apart in the source
[5] = test system: Streptozocin (STZ)-induced diabetes neuropathy in the rat; conditions: literature; cited from earlier work; remark: listed apart in the source
[6] = test system: Streptozocin (STZ)-induced diabetes neuropathy in the rat; experiment: STZ-induced static allodynia (von Frey hairs, PWT); format: in vivo; conditions: compound 25 mg/kg PO; gabapentin 100 mg/kg PO (positive control)
Method: as §1, §2
Animals were habituated to wire bottom test cages prior to the assessment of allodynia. Static allodynia was evaluated by application of von Frey hairs (Stoelting, Wood Dale, Ill., USA.) in ascending order of force (0.6, 1, 1.4, 2, 4, 6, 8, 10, 15 and 26 grams) to the plantar surface of hind paws. Each von Frey hair was applied to the paw for a maximum of 6 sec, or until a withdrawal response occurred. Once a withdrawal response to a von Frey hair was established, the paw was re-tested, starting with the filament below the one that produced a withdrawal, and subsequently with the remaining filaments in descending force sequence until no withdrawal occurred. The highest force of 26 g lifted the paw as well as eliciting a response, thus represented the cut off point. Each animal had both hind paws tested in this manner. The lowest amount of force required to elicit a response was recorded as paw withdrawal threshold (PWT) in grams. Static allodynia was defined as present if animals responded to a stimulus of, or less than, 4 g, which is innocuous in naive rats (Field M J, Bramwell S, Hughes J, Singh L. Detection of static and dynamic components of mechanical allodynia in rat models of neuropathic pain: are they signalled by distinct primary sensory neurones? Pain, 1999; 83:303-11).
as §3

[7] = test system: Carrageenan-induced thermal hyperalgesia (CITH) in the rat; experiment: Carrageenan-induced thermal hyperalgesia (CITH), rat plantar test; format: in vivo; conditions: 3 mg/kg SC
Method: as §1
Thermal hyperalgesia was assessed using the rat plantar test (Ugo Basile, Comerio, Italy), according to a method modified by Hargreaves et al. (1988). Briefly, rats were habituated to the apparatus that consisted of three individual Perspex boxes on a glass table. A mobile radiant heat source was located under the table and focused onto the desired paw. Paw withdrawal latencies (PWLs) were recorded three times for both hind paws of each animal, the mean of which represented baseline for left and right hind paws. The apparatus was calibrated to give a PWL of approximately 10 s in naïve rats. To prevent tissue damage of the plantar zone, a 22.5 sec cut-off was observed. Lambda carrageenan was injected intraplantarly (100 μl, 20 mg/ml) the right hind paw and baseline recordings of PWT were taken 2 hr post administration.
as §3

CRTH2 receptor = target: T1, CRTH2 receptor (Homo sapiens, UniProt Q9Y5Y4); experiment: calcium mobilization in cells that express CRTH2 receptor; format: cell-based; conditions: absence of test compound, Indo-1 fluorescence; read-out: EC50 of increased [Ca2+]i
T1 construct: Flag peptide (behind a 'prolac' signal peptide) (N); expressed in transfected cells
T1 sequence (Q9Y5Y4 1-395): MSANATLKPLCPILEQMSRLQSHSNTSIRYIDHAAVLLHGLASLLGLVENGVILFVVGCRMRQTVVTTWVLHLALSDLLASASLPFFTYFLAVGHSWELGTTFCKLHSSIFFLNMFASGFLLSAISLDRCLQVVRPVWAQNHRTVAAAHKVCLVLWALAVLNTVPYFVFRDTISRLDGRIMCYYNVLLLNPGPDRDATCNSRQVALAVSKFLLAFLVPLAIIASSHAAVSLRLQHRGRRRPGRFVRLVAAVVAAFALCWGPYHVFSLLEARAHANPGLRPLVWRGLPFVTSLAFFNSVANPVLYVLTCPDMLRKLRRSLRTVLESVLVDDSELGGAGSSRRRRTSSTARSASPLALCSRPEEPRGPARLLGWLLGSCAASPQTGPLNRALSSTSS
Method: The ratio of fluorescence produced by the calcium-bound dye to that produce by the unbound dye is used to estimate the intracellular calcium concentration. In an example method cells that express CRTH2 receptor are collected, and resuspended in fresh media at ˜2×10^5/ml the day before performing the calcium flux assay. Cells are incubated at 37° C. for not longer than 20-30 minutes, and then spun down and resuspended in 50 ml fresh PTI buffer (Hank's Buffer, pH 7.2-7.4; 10 mM Hepes; 1.6 mM CaCl2) containing Indo-1 AM, pre-warmed to 37° C., at a concentration of 10 million per ml. Cells are excited, and fluorescence is measured using a fluorimeter (Photon Technology Corporation, International). After the readout has stabilized, the time axis is reset, and PGD2 is added at a specific time point (e.g., 20 seconds). After response, the following reagents are added to the cuvette, to release and chelate total calcium, in the following order: 20 μl of 18% Triton X-100, 20 μl of 3M Tris, pH 8.5, and 20 μl of 0.5M EGTA, pH 8.5. The experiment is repeated in the presence and the absence of a test compound. […] Therefore, in the presence of an antagonist test compound, the EC50 would be expected to […].

SMILES	reversal of CCI-induced pain in rats (Schäfers 2004) (CCI-induced pain in rats)	dynamic allodynia in CCI rat model (Field et al 1999) [2]	dynamic allodynia in STZ rat model (Field et al 1999) [3]	static allodynia in CCI rat model (Field et al 1999) [4]	static allodynia in STZ rat model (Field et al 1999) [5]	further results
CC(C)Cc1ccc(C(C)C(=O)O)cc1 (centres unmarked) [Ibuprofen]	no significant effect					
NCC1(CC(=O)O)CCCCC1 [Gabapentin]		reverse both static and dynamic allodynia	reverse both static and dynamic allodynia	reverse both static and dynamic allodynia	reverse both static and dynamic allodynia	effect on maintenance of STZ-induced dynamic allodynia [1]: complete reversal; effect on maintenance of STZ-induced static allodynia [6]: complete reversal
CN1CC[C@]23c4c5ccc(O)c4O[C@H]2[C@@H](O)C=C[C@H]3[C@H]1C5 [Morphine, reference compound]		not dynamic allodynia		reverses static		analgesic effect of positive control [7]: produced the expected analgesic effect; change of PWLs in both hindpaws ([7]; 30 min post dose): increased the PWLs in both hindpaws over the baseline value of naïve rats
CCCCC[C@H](O)/C=C/[C@H]1C(=O)C[C@H](O)[C@@H]1C/C=C\CCCC(=O)O [PGD2, Prostaglandin D2]						EC50 (CRTH2 receptor): 15 nM
Cc1ccc(-c2cc(C(F)(F)F)nn2-c2ccc(S(N)(=O)=O)cc2)cc1 [Celebrex]	no significant effect					
CC(C)C[C@H](CN)CC(=O)O [Pregabalin]		reverse both static and dynamic allodynia	reverse both static and dynamic allodynia	reverse both static and dynamic allodynia	reverse both static and dynamic allodynia	
